Patent publication US11304962B2, “Methods of reducing risk of preterm birth” (COVIS Pharma GmbH, priority 2015, dated 2022)
In brackets after ≈: the same amount, converted by molar mass. Like-named read-outs stand apart in the source and are kept apart here.

Legend:
[1] = Single-dose crossover pharmacokinetic study of 17-HPC, SQ (upper anterior thigh) vs IM (gluteus maximus) injection; assay type: in vivo, human; conditions: for AUC(0-t) / Cmax: female, human, single dose, healthy postmenopausal women, plasma; for AUC(0-t): read-out: AUC0-t, LS Geometric Mean; for Cmax: read-out: Cmax, LS Geometric Mean
Experimental: An open-label, randomized, single-dose, two-period, two-treatment, four-sequence, crossover study was conducted to compare equal 250 mg doses of 17-HPC injections, 250 mg/ml given as either a 1 mL deep IM injection to the upper outer quadrant of the gluteus maximus or a 1 mL SQ injection to the upper anterior thigh. The study was conducted with 12 healthy, non-tobacco using postmenopausal adult women. The subjects were given the SQ injection in one study period and the IM injection in the other study period according to the four-sequence randomization schedule. Blood was taken at 4, 24, 48, 72, 96, 120 and 144-hours post-treatment, and plasma concentrations of 17-HPC were measured. The interval between doses was 21 days. The analytical data were used to estimate the pharmacokinetic parameters AUC0-t, Cmax, and Tmax.

[2] = Randomized bioavailability study of 17-HPC, SC injection in triceps area (1.1 or 1.2 mL) vs IM injection (1.0 mL); assay type: in vivo, human; conditions: for AUC(0-t) / AUC(0-inf) / Cmax / Tmax / half-life: female, human, plasma; for Cmax: healthy postmenopausal women, read-out: Cmax, geometric mean (geometric CV); for Tmax: read-out: Tmax, median; for half-life: read-out: t½, geometric mean (geometric CV) (converted)
Experimental: A randomized study is conducted to compare the bioavailability and injection site pain when 17-HPC, 250 mg/mL, is administered as a single 1.0 mL IM injection (250 mg) in the gluteus maximus or a 1.1 (275 mg) or 1.2 mL (300 mg) SQ injection in the triceps area of healthy post-menopausal women. Patients are randomized into two groups by route of administration. Group A receives a 1.0 mL IM injection of 17-HPC into the upper outer quadrant of the gluteus maximus. Group B receives a 1.1 or 1.2 mL SC injection into the upper outer thigh or arm (triceps area). Patient reported outcomes of injection site pain are collected to assess the safety and usability of SQ administration, either by medical staff or for self-administration of 17-HPC.
All patients have blood drawn prior to administration of 17-HPC, and at 2, 4, 8, 12, 18 and 24 hours post dose, and again at approximately the same time as dosing on days 2-7, 14, 21, and 28.

[3] = Solubility of HPC in benzyl benzoate/castor oil mixtures; assay type: physicochemical; conditions: for solubility: benzyl benzoate/castor oil mixture, oil or lipid, read-out: mg HPC/mL solution (solubility)
Text: Weight percent of BB is relative to the castor oil.

[4] = 250 mg SQ thigh vs 250 mg IM gluteus maximus
[5] = subcutaneous, SQ injection 250 mg (1 mL) upper anterior thigh
[6] = IM injection 250 mg (1 mL) gluteus maximus
[7] = IM 1.0 mL (250 mg) gluteus maximus
[8] = SC 1.1 mL (275 mg) triceps area
[9] = SC 1.2 mL (300 mg) triceps area
[10] = 25° C., 63.33 wt % BB relative to castor oil

CCCCCC(=O)O[C@]1(C(C)=O)CC[C@H]2[C@@H]3CCC4=CC(=O)CC[C@]4(C)[C@H]3CC[C@@]21C [17-HPC, 17-alpha-hydroxyprogesterone caproate]
AUC0-t LSGM Ratio A (SQ) vs B (IM) [1, 4]: 73.85% | Cmax LSGM Ratio A (SQ) vs B (IM) [1, 4]: 68.39% | AUC(0-t) [1, 5]: 458 ng·h/mL | Cmax [1, 5]: 4.2 ng/mL | AUC(0-t) [1, 6]: 621 ng·h/mL | Cmax [1, 6]: 6.14 ng/mL | […]z, geometric mean (geometric CV) [2, 7]: 0.0031 (37.3) [11] 1/hr | […]z, geometric mean (geometric CV) [2, 8]: 0.0031 (26.8) [17] 1/hr | […]z, geometric mean (geometric CV) [2, 9]: 0.0031 (38.4) [14] 1/hr | AUC(0-t) Least Squares Geometric Mean Ratio, Estimate ([2]; SC (1.1 mL) vs. IM (1.0 mL)): 103.64% | AUC(inf) Least Squares Geometric Mean Ratio, Estimate ([2]; SC (1.1 mL) vs. IM (1.0 mL)): 100.71% | Cmax Least Squares Geometric Mean Ratio, Estimate ([2]; SC (1.1 mL) vs. IM (1.0 mL)): 123.42% | AUC(0-t) Least Squares Geometric Mean Ratio, Estimate ([2]; SC (1.1 mL) vs. SC (1.2 mL)): 94.40% | AUC(inf) Least Squares Geometric Mean Ratio, Estimate ([2]; SC (1.1 mL) vs. SC (1.2 mL)): 91.63% | Cmax Least Squares Geometric Mean Ratio, Estimate ([2]; SC (1.1 mL) vs. SC (1.2 mL)): 107.50% | AUC(0-t) Least Squares Geometric Mean Ratio, Estimate ([2]; SC (1.2 mL) vs. IM (1.0 mL)): 109.78% | AUC(inf) Least Squares Geometric Mean Ratio, Estimate ([2]; SC (1.2 mL) vs. IM (1.0 mL)): 109.91% | Cmax Least Squares Geometric Mean Ratio, Estimate ([2]; SC (1.2 mL) vs. IM (1.0 mL)): 114.81% | AUC(0-t) ([2]; im, 250 mg, IM 1.0 mL (250 mg) gluteus maximus, read-out: AUC(0-t), Least Squares Geometric Mean): 2680 ng·h/mL | AUC(0-t) ([2]; im, 250 mg, IM 1.0 mL (250 mg) gluteus maximus, read-out: AUC(0-t), geometric mean (geometric CV)): 2680 ng·h/mL | AUC(0-inf) ([2]; im, 250 mg, IM 1.0 mL (250 mg) gluteus maximus, read-out: AUC(inf), Least Squares Geometric Mean): 2910 ng·h/mL | AUC(0-inf) ([2]; im, 250 mg, IM 1.0 mL (250 mg) gluteus maximus, read-out: AUC(inf), geometric mean (geometric CV)): 2910 ng·h/mL | AUC(0-t) ([2]; sc, 275 mg, SC 1.1 mL (275 mg) arm, read-out: AUC(0-t), Least Squares Geometric Mean): 2770 ng·h/mL | AUC(0-inf) ([2]; sc, 275 mg, SC 1.1 mL (275 mg) arm, read-out: AUC(inf), Least Squares Geometric Mean): 2930 ng·h/mL | AUC(0-t) ([2]; sc, 275 mg, SC 1.1 mL (275 mg) triceps area, read-out: AUC(0-t), geometric mean (geometric CV)): 2770 ng·h/mL | AUC(0-inf) ([2]; sc, 275 mg, SC 1.1 mL (275 mg) triceps area, read-out: AUC(inf), geometric mean (geometric CV)): 2940 ng·h/mL | AUC(0-t) ([2]; sc, 300 mg, SC 1.2 mL (300 mg) arm, read-out: AUC(0-t), Least Squares Geometric Mean): 2940 ng·h/mL | AUC(0-inf) ([2]; sc, 300 mg, SC 1.2 mL (300 mg) arm, read-out: AUC(inf), Least Squares Geometric Mean): 3200 ng·h/mL | AUC(0-t) ([2]; sc, 300 mg, SC 1.2 mL (300 mg) triceps area, read-out: AUC(0-t), geometric mean (geometric CV)): 2940 ng·h/mL | AUC(0-inf) ([2]; sc, 300 mg, SC 1.2 mL (300 mg) triceps area, read-out: AUC(inf), geometric mean (geometric CV)): 3200 ng·h/mL | Cmax [2, 7]: 7.08 ng/mL | Tmax [2, 7]: 120 h | half-life [2, 7]: 220 h | Cmax [2, 8]: 8.74 ng/mL | Tmax [2, 8]: 24 h | half-life [2, 8]: 223 h | Cmax [2, 9]: 8.13 ng/mL | Tmax [2, 9]: 48 h | half-life [2, 9]: 225 h | Avg. HPC wt % (solubility) ([3]; 5° C., 53.01 wt % BB relative to castor oil): 18.60 wt % | Avg. HPC wt % (solubility) ([3]; 5° C., 63.33 wt % BB relative to castor oil): 20.31 wt % | Avg. HPC wt % (solubility) ([3]; 5° C., 69.43 wt % BB relative to castor oil): 21.62 wt % | Avg. HPC wt % (solubility) ([3]; 5° C., 75.59 wt % BB relative to castor oil): 23.00 wt % | Avg. HPC wt % (solubility) ([3]; 5° C., 81.79 wt % BB relative to castor oil): 24.65 wt % | Avg. HPC wt % (solubility) ([3]; 5° C., 87.91 wt % BB relative to castor oil): 25.22 wt % | Avg. HPC wt % (solubility) ([3]; 15° C., 53.01 wt % BB relative to castor oil): 20.49 wt % | Avg. HPC wt % (solubility) ([3]; 15° C., 63.33 wt % BB relative to castor oil): 22.96 wt % | Avg. HPC wt % (solubility) ([3]; 15° C., 69.43 wt % BB relative to castor oil): 24.28 wt % | Avg. HPC wt % (solubility) ([3]; 15° C., 75.59 wt % BB relative to castor oil): 25.97 wt % | Avg. HPC wt % (solubility) ([3]; 15° C., 81.79 wt % BB relative to castor oil): 27.32 wt % | Avg. HPC wt % (solubility) ([3]; 15° C., 87.91 wt % BB relative to castor oil): 28.30 wt % | Avg. HPC wt % (solubility) ([3]; 25° C., 53.01 wt % BB relative to castor oil): 24.08 wt % | Avg. HPC wt % (solubility) [3, 10]: 27.17 wt % | Avg. HPC wt % (solubility) ([3]; 25° C., 69.43 wt % BB relative to castor oil): 28.76 wt % | Avg. HPC wt % (solubility) ([3]; 25° C., 75.59 wt % BB relative to castor oil): 30.62 wt % | Avg. HPC wt % (solubility) ([3]; 25° C., 81.79 wt % BB relative to castor oil): 31.98 wt % | Avg. HPC wt % (solubility) ([3]; 25° C., 87.91 wt % BB relative to castor oil): 33.26 wt % | solubility data over multiple days ([3]; BB/castor oil with and without benzyl alcohol, 5, 15, 25° C., over 5 days): fairly constant | solubility ([3]; 5 °C, 5° C., 53.01 wt % BB relative to castor oil): 200 mg/mL (≈ 467 mM) | solubility ([3]; 5 °C, 5° C., 63.33 wt % BB relative to castor oil): 222 mg/mL (≈ 518 mM) | solubility ([3]; 5 °C, 5° C., 69.43 wt % BB relative to castor oil): 238 mg/mL (≈ 555 mM) | solubility ([3]; 5 °C, 5° C., 75.59 wt % BB relative to castor oil): 253 mg/mL (≈ 590 mM) | solubility ([3]; 5 °C, 5° C., 81.79 wt % BB relative to castor oil): 273 mg/mL (≈ 637 mM) | solubility ([3]; 5 °C, 5° C., 87.91 wt % BB relative to castor oil): 284 mg/mL (≈ 663 mM) | solubility ([3]; 15 °C, thermodynamic from solid, 15° C., 53.01 wt % BB relative to castor oil): 220 mg/mL (≈ 513 mM) | solubility ([3]; 15 °C, thermodynamic from solid, 15° C., 63.33 wt % BB relative to castor oil): 254 mg/mL (≈ 593 mM) | solubility ([3]; 15 °C, thermodynamic from solid, 15° C., 69.43 wt % BB relative to castor oil): 269 mg/mL (≈ 628 mM) | solubility ([3]; 15 °C, thermodynamic from solid, 15° C., 75.59 wt % BB relative to castor oil): 289 mg/mL (≈ 674 mM) | solubility ([3]; 15 °C, thermodynamic from solid, 15° C., 81.79 wt % BB relative to castor oil): 306 mg/mL (≈ 714 mM) | solubility ([3]; 15 °C, thermodynamic from solid, 15° C., 87.91 wt % BB relative to castor oil): 320 mg/mL (≈ 747 mM) | solubility ([3]; 25 °C, 25° C., 69.43 wt % BB relative to castor oil): 321 mg/mL (≈ 749 mM) | solubility ([3]; 25 °C, 25° C., 75.59 wt % BB relative to castor oil): 347 mg/mL (≈ 810 mM) | solubility ([3]; 25 °C, 25° C., 81.79 wt % BB relative to castor oil): 363 mg/mL (≈ 847 mM) | solubility ([3]; 25 °C, 25° C., 87.91 wt % BB relative to castor oil): 382 mg/mL (≈ 891 mM) | solubility ([3]; 25 °C, thermodynamic from solid, 25° C., 53.01 wt % BB relative to castor oil): 262 mg/mL (≈ 611 mM) | solubility [3, 10]: 303 mg/mL (≈ 707 mM)
